Data published in paper doi:10.1101/2021.04.08.439011v1 (biorxiv, 2021).
Where two headings read alike, the source gives them in different places.

Experiments:
MINK = MINK (Homo sapiens, UniProt Q8N4C8); conditions: 0.1 µM; binder
ERK8 = ERK8 (Homo sapiens, UniProt Q8TD08); conditions: 0.1 µM; binder
ABL1(F317I) = ABL1(F317I) (Homo sapiens, UniProt P00519, F317I); conditions: 0.1 µM, binder
DCAMKL2 = DCAMKL2 (Homo sapiens, UniProt Q8N568); conditions: 0.1 µM; binder
WEE1 = WEE1 (Homo sapiens, UniProt P30291); conditions: 0.1 µM; binder
YSK4 = YSK4 (Homo sapiens, UniProt Q56UN5); conditions: 0.1 µM; binder
ROCK1 = ROCK1 (Homo sapiens, UniProt Q13464); conditions: 0.1 µM; binder
PKMYT1 = PKMYT1 (Homo sapiens, UniProt Q99640); conditions: 0.1 µM; binder
ITK = ITK (Homo sapiens, UniProt Q08881); conditions: 0.1 µM; binder
RIPK1 = RIPK1 (Homo sapiens, UniProt Q13546); conditions: 0.1 µM; binder
Sequence of RIPK1 (Q13546 whole entry): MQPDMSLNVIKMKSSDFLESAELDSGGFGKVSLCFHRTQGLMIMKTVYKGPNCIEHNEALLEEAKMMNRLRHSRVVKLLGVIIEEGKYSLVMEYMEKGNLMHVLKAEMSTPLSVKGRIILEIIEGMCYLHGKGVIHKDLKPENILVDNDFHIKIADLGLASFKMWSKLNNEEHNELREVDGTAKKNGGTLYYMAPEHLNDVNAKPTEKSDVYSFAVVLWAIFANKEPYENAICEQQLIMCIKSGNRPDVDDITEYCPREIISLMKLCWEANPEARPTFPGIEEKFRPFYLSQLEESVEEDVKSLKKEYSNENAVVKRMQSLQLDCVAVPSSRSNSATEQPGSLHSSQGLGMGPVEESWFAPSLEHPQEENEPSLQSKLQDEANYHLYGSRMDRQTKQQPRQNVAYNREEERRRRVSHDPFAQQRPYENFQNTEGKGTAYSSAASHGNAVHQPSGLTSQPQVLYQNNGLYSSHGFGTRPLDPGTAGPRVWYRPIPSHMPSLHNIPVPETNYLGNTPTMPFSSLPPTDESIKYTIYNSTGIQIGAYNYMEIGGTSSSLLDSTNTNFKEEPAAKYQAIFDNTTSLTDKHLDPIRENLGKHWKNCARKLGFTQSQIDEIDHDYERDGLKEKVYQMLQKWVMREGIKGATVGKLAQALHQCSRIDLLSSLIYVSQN

GRK7 = GRK7 (Homo sapiens, UniProt Q8WTQ7); conditions: 0.1 µM; binder
Sequence of GRK7 (Q8WTQ7 whole entry): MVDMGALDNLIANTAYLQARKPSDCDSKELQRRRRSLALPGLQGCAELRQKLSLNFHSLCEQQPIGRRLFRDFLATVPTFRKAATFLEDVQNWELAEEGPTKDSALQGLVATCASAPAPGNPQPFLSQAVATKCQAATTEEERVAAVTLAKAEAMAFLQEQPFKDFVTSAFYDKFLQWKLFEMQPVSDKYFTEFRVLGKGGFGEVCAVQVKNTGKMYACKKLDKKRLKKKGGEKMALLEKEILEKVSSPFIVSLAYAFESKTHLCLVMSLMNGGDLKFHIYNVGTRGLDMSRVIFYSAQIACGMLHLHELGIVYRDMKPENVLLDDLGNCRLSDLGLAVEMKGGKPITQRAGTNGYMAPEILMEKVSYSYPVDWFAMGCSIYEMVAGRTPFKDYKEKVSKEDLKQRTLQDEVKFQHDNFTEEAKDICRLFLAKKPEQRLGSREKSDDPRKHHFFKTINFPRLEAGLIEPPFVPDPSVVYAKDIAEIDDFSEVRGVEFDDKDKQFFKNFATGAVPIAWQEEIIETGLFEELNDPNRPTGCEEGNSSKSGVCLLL

BRK = BRK (Homo sapiens, UniProt Q13882); conditions: 0.1 µM; binder
TRKA = TRKA (Homo sapiens, UniProt P04629); conditions: 0.1 µM; binder
MET(M1250T) = MET(M1250T) (Homo sapiens, UniProt P08581, M1250T); conditions: 0.1 µM; binder
ERK5 = ERK5 (Homo sapiens, UniProt Q13164); conditions: 0.1 µM; binder
PDPK1 = PDPK1 (Homo sapiens, UniProt O15530); conditions: 0.1 µM; binder
ABL1(T315I) = ABL1(T315I) (Homo sapiens, UniProt P00519, T315I); conditions: 0.1 µM, binder
p38-beta = p38-beta (Homo sapiens, UniProt Q15759); conditions: 0.1 µM; binder
Sequence of p38-beta (Q15759 whole entry): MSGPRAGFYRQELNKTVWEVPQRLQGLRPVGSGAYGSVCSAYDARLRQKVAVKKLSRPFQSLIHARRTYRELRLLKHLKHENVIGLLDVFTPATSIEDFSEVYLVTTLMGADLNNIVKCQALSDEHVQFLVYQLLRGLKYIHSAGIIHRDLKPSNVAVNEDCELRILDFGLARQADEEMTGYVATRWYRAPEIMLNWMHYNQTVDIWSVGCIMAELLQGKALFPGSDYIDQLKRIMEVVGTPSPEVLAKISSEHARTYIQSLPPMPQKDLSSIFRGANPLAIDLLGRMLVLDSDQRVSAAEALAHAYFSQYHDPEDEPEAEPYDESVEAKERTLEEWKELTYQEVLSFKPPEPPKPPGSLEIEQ

CDC2L2 = CDC2L2 (Homo sapiens, UniProt Q9UQ88); conditions: 0.1 µM; binder
Sequence of CDC2L2 (Q9UQ88 whole entry): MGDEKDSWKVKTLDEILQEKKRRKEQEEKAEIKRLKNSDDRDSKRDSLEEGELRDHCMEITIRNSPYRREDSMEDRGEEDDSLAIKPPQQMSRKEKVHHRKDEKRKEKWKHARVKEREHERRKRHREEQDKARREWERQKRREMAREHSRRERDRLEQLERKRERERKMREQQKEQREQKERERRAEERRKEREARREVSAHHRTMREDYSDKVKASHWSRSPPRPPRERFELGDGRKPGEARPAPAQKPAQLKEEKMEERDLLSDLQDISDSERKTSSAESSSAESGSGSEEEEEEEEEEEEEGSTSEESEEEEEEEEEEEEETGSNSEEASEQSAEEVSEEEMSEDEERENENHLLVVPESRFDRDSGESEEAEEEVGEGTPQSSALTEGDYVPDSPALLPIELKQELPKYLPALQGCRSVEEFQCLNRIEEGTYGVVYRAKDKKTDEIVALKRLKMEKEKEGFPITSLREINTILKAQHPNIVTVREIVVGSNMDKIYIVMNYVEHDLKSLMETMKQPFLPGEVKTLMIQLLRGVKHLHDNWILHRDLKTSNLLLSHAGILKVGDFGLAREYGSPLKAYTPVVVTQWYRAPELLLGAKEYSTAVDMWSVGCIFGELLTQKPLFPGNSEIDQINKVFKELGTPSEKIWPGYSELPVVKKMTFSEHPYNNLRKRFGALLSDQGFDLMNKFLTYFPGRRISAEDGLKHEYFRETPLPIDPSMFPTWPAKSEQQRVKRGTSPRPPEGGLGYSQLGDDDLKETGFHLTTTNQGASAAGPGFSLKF

ADCK4 = ADCK4 (Homo sapiens, UniProt Q96D53); conditions: 0.1 µM; binder
HCK = HCK (Homo sapiens, UniProt P08631); conditions: 0.1 µM; binder
NEK10 = NEK10 (Homo sapiens, UniProt Q6ZWH5); conditions: 0.1 µM; binder
Sequence of NEK10 (Q6ZWH5 whole entry): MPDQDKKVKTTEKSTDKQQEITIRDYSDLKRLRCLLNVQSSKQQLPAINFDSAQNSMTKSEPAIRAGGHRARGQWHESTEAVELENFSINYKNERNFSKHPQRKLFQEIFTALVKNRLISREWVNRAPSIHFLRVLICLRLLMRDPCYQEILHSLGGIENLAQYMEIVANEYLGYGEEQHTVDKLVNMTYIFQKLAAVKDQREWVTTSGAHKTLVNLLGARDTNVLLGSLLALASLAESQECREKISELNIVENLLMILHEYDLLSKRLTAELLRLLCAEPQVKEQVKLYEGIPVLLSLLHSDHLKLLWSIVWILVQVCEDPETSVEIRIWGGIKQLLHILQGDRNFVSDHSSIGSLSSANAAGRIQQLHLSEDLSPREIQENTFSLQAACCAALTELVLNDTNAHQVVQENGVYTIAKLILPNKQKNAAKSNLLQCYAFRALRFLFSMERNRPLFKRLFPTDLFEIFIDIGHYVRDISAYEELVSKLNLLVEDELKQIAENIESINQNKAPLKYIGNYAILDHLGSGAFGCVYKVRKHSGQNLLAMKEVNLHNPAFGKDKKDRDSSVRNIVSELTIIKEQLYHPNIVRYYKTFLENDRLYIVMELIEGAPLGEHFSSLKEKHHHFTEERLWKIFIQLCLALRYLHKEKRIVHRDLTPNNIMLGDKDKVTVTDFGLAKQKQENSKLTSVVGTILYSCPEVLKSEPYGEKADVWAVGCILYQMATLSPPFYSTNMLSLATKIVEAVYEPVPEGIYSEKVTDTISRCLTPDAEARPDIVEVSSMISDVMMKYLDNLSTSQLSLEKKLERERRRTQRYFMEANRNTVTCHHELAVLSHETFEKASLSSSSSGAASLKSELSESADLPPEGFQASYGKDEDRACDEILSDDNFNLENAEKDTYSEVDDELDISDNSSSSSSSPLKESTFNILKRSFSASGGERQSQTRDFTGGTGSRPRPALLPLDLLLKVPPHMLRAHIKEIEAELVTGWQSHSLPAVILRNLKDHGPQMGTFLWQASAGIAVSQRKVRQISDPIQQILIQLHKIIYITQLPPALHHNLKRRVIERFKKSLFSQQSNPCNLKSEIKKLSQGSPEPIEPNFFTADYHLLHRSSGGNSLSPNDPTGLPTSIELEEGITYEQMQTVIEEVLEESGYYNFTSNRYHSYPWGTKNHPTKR

IRAK1 = IRAK1 (Homo sapiens, UniProt P51617); conditions: 0.1 µM; binder
MELK = MELK (Homo sapiens, UniProt Q14680); conditions: 0.1 µM; binder
FLT3(ITD) = FLT3(ITD) (Homo sapiens, UniProt P36888); conditions: 0.1 µM; binder
YANK2 = YANK2 (Homo sapiens, UniProt Q9NY57); conditions: 0.1 µM; binder
EPHA8 = EPHA8 (Homo sapiens, UniProt P29322); conditions: 0.1 µM; binder
PHKG1 = PHKG1 (Homo sapiens, UniProt Q16816); conditions: 0.1 µM; binder
Sequence of PHKG1 (Q16816 whole entry): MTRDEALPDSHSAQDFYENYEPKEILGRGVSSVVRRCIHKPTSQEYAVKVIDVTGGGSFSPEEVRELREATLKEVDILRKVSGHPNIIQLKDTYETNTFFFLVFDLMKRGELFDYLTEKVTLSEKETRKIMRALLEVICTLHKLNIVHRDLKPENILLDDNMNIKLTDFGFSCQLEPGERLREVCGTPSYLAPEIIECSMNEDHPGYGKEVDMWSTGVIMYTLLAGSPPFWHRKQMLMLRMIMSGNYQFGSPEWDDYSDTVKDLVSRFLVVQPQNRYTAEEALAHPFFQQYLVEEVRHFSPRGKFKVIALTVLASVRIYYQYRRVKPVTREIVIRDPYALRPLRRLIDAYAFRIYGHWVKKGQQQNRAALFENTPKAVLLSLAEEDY

ERN1 = ERN1 (Homo sapiens, UniProt O75460); conditions: 0.1 µM; binder
PKAC-beta = PKAC-beta (Homo sapiens, UniProt P22694); conditions: 0.1 µM; binder
FAK = FAK (Homo sapiens, UniProt Q05397); conditions: 0.1 µM; binder
Sequence of FAK (Q05397 whole entry): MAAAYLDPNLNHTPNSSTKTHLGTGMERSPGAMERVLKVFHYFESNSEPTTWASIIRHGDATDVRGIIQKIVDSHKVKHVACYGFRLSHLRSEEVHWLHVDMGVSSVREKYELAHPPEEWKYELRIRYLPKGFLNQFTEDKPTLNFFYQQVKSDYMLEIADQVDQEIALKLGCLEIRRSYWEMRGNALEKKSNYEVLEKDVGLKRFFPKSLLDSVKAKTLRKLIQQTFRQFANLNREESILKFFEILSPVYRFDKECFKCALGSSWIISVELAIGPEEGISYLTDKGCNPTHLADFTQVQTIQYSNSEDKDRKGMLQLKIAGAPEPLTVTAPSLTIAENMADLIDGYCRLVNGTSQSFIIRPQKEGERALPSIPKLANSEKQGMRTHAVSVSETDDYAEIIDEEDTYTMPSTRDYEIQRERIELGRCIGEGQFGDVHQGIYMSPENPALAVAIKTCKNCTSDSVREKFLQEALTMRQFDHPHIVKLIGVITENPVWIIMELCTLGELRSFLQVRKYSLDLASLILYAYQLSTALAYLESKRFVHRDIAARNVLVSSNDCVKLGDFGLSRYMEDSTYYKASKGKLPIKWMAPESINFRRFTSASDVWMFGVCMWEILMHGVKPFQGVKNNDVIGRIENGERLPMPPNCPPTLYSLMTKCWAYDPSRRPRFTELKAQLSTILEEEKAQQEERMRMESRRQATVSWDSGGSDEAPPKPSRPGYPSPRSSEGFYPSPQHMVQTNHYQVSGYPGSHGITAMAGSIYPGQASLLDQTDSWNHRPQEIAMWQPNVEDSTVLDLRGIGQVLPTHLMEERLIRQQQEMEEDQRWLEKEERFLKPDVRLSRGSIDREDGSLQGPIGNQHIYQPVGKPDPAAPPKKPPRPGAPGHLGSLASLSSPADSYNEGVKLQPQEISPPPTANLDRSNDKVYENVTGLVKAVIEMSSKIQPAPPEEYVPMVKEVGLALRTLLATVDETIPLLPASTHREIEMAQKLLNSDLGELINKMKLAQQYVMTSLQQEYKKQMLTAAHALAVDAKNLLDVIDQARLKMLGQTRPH

CNc1ncc2cc(-c3ccc(-c4cccc(C)n4)cc3Cl)c(=O)n(C[C@H]3OC[C@H](N)CO3)c2n1 [compound 6, G-5555]
Percent Control (MINK): 77%
Percent Control (ERK8): 100%
Percent Control (ABL1(F317I); nonphosphorylated): 100%
Percent Control (ABL1(F317I); phosphorylated): 87%
Percent Control (DCAMKL2): 100%
Percent Control (WEE1): 98%
Percent Control (YSK4): 70%
Percent Control (ROCK1): 83%
Percent Control (PKMYT1): 100%
Percent Control (ITK): 100%
Percent Control (RIPK1): 100%
Percent Control (GRK7): 89%
Percent Control (BRK): 100%
Percent Control (TRKA): 77%
Percent Control (MET(M1250T)): 76%
Percent Control (ERK5): 98%
Percent Control (PDPK1): 99%
Percent Control (ABL1(T315I); nonphosphorylated): 90%
Percent Control (ABL1(T315I); phosphorylated): 100%
Percent Control (p38-beta): 97%
Percent Control (CDC2L2): 100%
Percent Control (ADCK4): 99%
Percent Control (HCK): 100%
Percent Control (NEK10): 91%
Percent Control (IRAK1): 97%
Percent Control (MELK): 51%
Percent Control (FLT3(ITD)): 100%
Percent Control (YANK2): 3.5%
Percent Control (EPHA8): 100%
Percent Control (PHKG1): 100%
Percent Control (ERN1): 92%
Percent Control (PKAC-beta): 100%
Percent Control (FAK): 98%
